Molecular target: T1, OGA (Rattus norvegicus, UniProt Q8VIJ5)
T1 sequence (Q8VIJ5 1-916): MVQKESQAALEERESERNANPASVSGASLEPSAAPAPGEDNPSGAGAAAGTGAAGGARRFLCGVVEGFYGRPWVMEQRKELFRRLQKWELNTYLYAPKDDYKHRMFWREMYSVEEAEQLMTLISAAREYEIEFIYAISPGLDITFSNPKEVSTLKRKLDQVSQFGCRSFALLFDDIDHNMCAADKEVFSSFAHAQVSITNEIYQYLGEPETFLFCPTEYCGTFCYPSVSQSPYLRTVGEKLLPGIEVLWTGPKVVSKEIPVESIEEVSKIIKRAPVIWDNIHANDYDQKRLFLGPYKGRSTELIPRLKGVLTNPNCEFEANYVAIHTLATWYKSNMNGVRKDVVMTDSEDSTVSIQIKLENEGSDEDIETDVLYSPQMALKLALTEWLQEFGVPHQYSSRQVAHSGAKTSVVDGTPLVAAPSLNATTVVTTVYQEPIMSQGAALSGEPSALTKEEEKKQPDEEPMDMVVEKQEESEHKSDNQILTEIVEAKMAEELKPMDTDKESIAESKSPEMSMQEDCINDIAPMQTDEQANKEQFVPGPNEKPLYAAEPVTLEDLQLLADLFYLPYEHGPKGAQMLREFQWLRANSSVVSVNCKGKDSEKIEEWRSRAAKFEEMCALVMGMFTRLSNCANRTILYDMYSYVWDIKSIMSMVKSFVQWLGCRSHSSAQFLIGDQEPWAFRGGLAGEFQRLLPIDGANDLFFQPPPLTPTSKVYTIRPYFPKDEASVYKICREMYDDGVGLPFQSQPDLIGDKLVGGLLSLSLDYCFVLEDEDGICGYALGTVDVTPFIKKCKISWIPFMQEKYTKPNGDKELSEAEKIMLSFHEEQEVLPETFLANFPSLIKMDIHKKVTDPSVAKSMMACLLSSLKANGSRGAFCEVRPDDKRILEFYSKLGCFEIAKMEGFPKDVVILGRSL
Assay: Rat OGA occupancy of thiamet G
Type: in vivo
Details: 2 h before tracer

- LSN3316612 tracer uptake blocked (thiamet G 30 mg/kg p.o.): 80%
- LSN3316612 tracer uptake blocked (thiamet G 100 mg/kg p.o.): 94%
Compound: CCN=C1N[C@@H]2[C@@H](O)[C@H](O)[C@@H](CO)O[C@@H]2S1 [thiamet G]
